Data from patent US7816408B2, “Calcium receptor active compounds” (NPS Pharmaceuticals, Inc., priority 2002, dated 2010).

Experiments:
human calcium receptor = molecular target: T1, human calcium receptor (Homo sapiens, UniProt P41180); assay: Activity on calcium receptors: fluo-3 fluorescence in HEK293 cells transfected with human calcium receptor gene; assay type: cell-based; details: HEK293 cells transfected with plasmid pHuPCaR4.0 (human calcium receptor gene), loaded with fluo-3; 1 mM CaCl2, 1 mM MgCl2
T1 construct: expressed in transfected cells; host or cells: HEK293
T1 sequence (P41180 20-1078): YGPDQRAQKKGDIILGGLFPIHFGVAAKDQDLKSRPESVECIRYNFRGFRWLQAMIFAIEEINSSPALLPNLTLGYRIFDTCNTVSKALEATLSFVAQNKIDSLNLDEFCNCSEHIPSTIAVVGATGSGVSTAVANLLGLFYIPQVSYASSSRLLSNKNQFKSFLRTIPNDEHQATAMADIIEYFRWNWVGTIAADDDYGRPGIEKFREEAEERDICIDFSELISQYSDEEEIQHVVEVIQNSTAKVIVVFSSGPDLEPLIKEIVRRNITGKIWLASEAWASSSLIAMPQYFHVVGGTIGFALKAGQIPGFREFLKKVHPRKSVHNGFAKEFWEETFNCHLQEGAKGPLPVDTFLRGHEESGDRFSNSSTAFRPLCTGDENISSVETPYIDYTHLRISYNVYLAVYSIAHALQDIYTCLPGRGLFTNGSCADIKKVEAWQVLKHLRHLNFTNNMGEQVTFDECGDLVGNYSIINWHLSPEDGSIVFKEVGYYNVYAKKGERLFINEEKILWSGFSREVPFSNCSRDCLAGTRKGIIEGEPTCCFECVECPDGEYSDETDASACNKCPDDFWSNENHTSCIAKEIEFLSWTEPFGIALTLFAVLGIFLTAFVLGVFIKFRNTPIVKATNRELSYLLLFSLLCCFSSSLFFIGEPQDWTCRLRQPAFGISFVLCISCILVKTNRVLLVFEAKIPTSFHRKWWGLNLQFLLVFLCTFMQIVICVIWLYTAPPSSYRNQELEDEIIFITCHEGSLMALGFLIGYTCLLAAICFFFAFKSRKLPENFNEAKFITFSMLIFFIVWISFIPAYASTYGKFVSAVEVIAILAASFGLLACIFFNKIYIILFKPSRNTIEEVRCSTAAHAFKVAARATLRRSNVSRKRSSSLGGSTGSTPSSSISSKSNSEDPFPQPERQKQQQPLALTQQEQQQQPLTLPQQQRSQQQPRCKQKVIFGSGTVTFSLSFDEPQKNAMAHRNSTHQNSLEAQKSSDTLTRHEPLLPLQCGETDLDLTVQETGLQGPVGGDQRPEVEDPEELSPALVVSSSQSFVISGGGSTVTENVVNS
Method in brief: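 HEK293 cells transfected with human calcium receptor plasmid, loaded 1 h at 37 °C with about 5 μM fluo-3/AM. Cells then rinsed into HEPES-buffered HBSS with 1 mM CaCl2 and 1 mM MgCl2. Fluorescence read at 485/540 nm after compound addition.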

normal male SD rats = assay: Plasma Ca^2+ level of rats after single oral administration; assay type: in vivo; details: rat, mean of six animals; for Plasma Ca^2+ (mmol/l) 0 hr: 0 hr = before oral administration of 30 μmol/kg; for Plasma Ca^2+ (mmol/l) 1 hr: 1 hr after single oral dose 30 μmol/kg; for Plasma Ca^2+ (mmol/l) 2 hr: 2 hr after single oral dose 30 μmol/kg; for Plasma Ca^2+ (mmol/l) 4 hr: 4 hr after single oral dose 30 μmol/kg; for Plasma Ca^2+ (mmol/l) 8 hr: 8 hr after single oral dose 30 μmol/kg; for Plasma Ca^2+ (mmol/l) 28 hr (footnote *d, 24 hr column): 28 hr after single oral dose 30 μmol/kg; for Plasma Ca^2+ (mmol/l) 24 hr: 24 hr after single oral dose 30 μmol/kg
Method in brief: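 Normal male SD rats (n=6/group) received a single oral dose of 30 μmol/kg in 10% cyclodextrin or, for some compounds, 1% sodium-CMC; vehicle controls received 2.5 ml/kg. Tail blood was drawn pre-dose and at 30 min and 1, 2, 4, 8 and 24 h for plasma Ca^2+ and serum PTH. PTH was compared with vehicle by Steel's test.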

[1] = vehicle 10% cyclodextrin (** 1% sodium-CMC)

Row | EC50 (human calcium receptor) [nM] | Compound | Plasma Ca^2+ (mmol/l) 0 hr (normal male SD rats; [1]) [mmol/L] | Plasma Ca^2+ (mmol/l) 1 hr (normal male SD rats; [1]) [mmol/L] | Plasma Ca^2+ (mmol/l) 2 hr (normal male SD rats; [1]) [mmol/L] | Plasma Ca^2+ (mmol/l) 4 hr (normal male SD rats; [1]) [mmol/L] | Plasma Ca^2+ (mmol/l) 8 hr (normal male SD rats; [1]) [mmol/L] | Plasma Ca^2+ (mmol/l) 23 hr (footnote *c, 24 hr column) (normal male SD rats; 23 hr after single oral dose 30 μmol/kg, vehicle 10% cyclodextrin (** 1% sodium-CMC)) | Plasma Ca^2+ (mmol/l) 28 hr (footnote *d, 24 hr column) (normal male SD rats; vehicle 10% cyclodextrin) | Plasma Ca^2+ (mmol/l) 24 hr (normal male SD rats; [1]) [mmol/L] | Plasma Ca^2+ (mmol/l) 48 hr (normal male SD rats; 48 hr after single oral dose 30 μmol/kg, vehicle 10% cyclodextrin) [mmol/L]
1 | 110 | Cc1ccc(SCCCCCN[C@H](C)c2cccc3ccccc23)cc1 [Compound K-2305] | 1.415 | 1.242 | 1.170 | 1.098 | 1.202 | – | – | – | –
2 | 360 | C[C@@H](NCCCSc1ccc(C(F)(F)F)cc1)c1cccc2ccccc12 [Compound K-2240, N-[(1R)-1-(1-naphthyl)ethyl]-N-(3-{[4-(trifluoromethyl)phenyl]thio}propyl)amine] | – | 1.302 | 1.272 | 1.175 | 1.230 | – | – | – | –
3 | 84 | C[C@@H](NCCC(=O)N(Cc1ccc(Cl)cc1)Cc1ccccc1Cl)c1cccc2ccccc12 [Compound K-2262, N1-(2-chlorobenzyl)-N1-(4-chlorobenzyl)-3-{[(1R)-1-(1-naphthyl)ethyl]amino}propanamide] | – | 1.390 | 1.260 | 1.138 | 1.142 | – | – | – | –
4 | 71 | COc1cccc(SCCCCN[C@H](C)c2cccc3ccccc23)c1 [Compound K-2269, N-{4-[(3-methoxyphenyl)thio]butyl}-N-[(1R)-1-(1-naphthyl)ethyl]amine] | – | 1.152 | 1.140 | 1.097 | 1.173 | – | – | – | –
5 | 220 | C[C@@H](NCCCCCSc1cc(Cl)ccc1Cl)c1cccc2ccccc12 [Compound K-2296, N-{[5-(2,5-dichlorophenyl)thio]pentyl}N-[(1R)-1-(1-naphthyl)ethyl]amine] | 1.410 | 1.340 | 1.195 | 1.113 | 1.083 | – | – | – | –
6 | 87 | C[C@@H](NCCCCSc1cccc(C(F)(F)F)c1)c1cccc2ccccc12 [Compound K-2087, N-[(1R)-1-(1-naphthyl)ethyl]-N-(4-{[3-(trifluoromethyl)phenyl]thio}butyl)amine] | – | 1.325 | 1.243 | 1.197 | 1.255 | – | – | – | –
7 | 800 | C[C@@H](NCCCCCCSc1ccc(OC(F)(F)F)cc1)c1cccc2ccccc12 [Compound K-2301] | 1.397 | 1.237 | 1.165 | 1.077 | 1.075 | 1.350*^c mmol/l | – | – | –
8 | 59 | Cc1ccc(CN(Cc2ccc(OC(F)(F)F)cc2)C(=O)CCN[C@H](C)c2cccc3ccccc23)cc1 [Compound K-2310, N1-(4-methylbenzyl)-N1-[4-(trifluoromethoxy)benzyl]-3-{[(1R)-1-(1-naphthyl)ethyl]amino}propanamide] | – | 1.342 | 1.188 | 1.008 | 0.943 | – | 1.330*^d mmol/l | – | –
9 | 74 | C[C@@H](NCCCCCCCSc1c(F)c(F)c(C(F)(F)F)c(F)c1F)c1cccc2ccccc12 [Compound K-2292, N-[(1R)-1-(1-naphthyl)ethyl]-N-(7-{[2,3,5,6-tetrafluoro-4-(trifluoromethyl)phenyl]thio}heptyl)amine] | – | 1.375 | 1.252 | 1.152 | 1.108 | – | – | – | –
10 | 62 | C[C@@H](NCCCCSc1ccc(OC(F)(F)F)cc1)c1cccc2ccccc12 [Compound K-2287, N-[(1R)-1-(1-naphthyl)ethyl]-N-(4-{[4-(trifluoromethoxy)phenyl)thio]butyl)amine] | – | 1.180 | 1.042 | 0.955 | 0.950 | – | – | 1.200 | 1.392
11 | 380 | CC(NCCSc1cc(Cl)ccc1Cl)c1cccc(OCc2ccc(Cl)cc2)c1 (racemic) [Compound K-2258, (±)-N-(1-(3-(4-chlorobenzyloxy)phenyl)ethyl)-2-(2′,5′-dichlorophenylthio)ethylamine] | – | 1.317 | 1.227 | 1.133 | 1.207 | – | – | – | –
12 | 280 | C[C@@H](NCCCCSc1ccc(Cl)cc1)c1cccc2ccccc12 [Compound K-2293, N-{4-[(4-chlorophenyl)thio]butyl}-N-[(1R)-1-(1-naphthyl)ethyl]amine] | – | 1.245 | 1.152 | 1.068 | 1.088 | – | – | – | –
13 | 630 | COc1cccc(SCCCCCN[C@H](C)c2cccc3ccccc23)c1 [Compound K-2279, N-{[5-(3-methoxyphenyl)thio]pentyl}N-[(1R)-1-(1-naphthyl)ethyl]amine] | 1.443 | 1.200 | 1.155 | 1.130 | 1.210 | – | – | 1.445 | –
14 | 270 | COc1ccc(SCCCCCN[C@H](C)c2cccc3ccccc23)cc1 [Compound K-2280] | 1.443 | 1.233 | 1.167 | 1.077 | 1.142 | – | – | 1.405 | –
15 | 66 | COc1ccc(CN(Cc2ccc(Cl)c(Cl)c2)C(=O)CCN[C@H](C)c2cccc3ccccc23)cc1 [Compound K-2309, N1-(3,4-dichlorobenzyl)-N1-(4-methoxybenzyl)-3-{[(1R)-1-(1-naphthyl)ethyl]amino}propanamide] | – | 1.320 | 1.207 | 1.018 | 0.963 | – | 1.332*^d mmol/l | – | –

Row | Compound | EC50 (human calcium receptor) [nM] | Plasma Ca^2+ (mmol/l) 0 hr (normal male SD rats; [1]) [mmol/L] | Plasma Ca^2+ (mmol/l) 1 hr (normal male SD rats; [1]) [mmol/L] | Plasma Ca^2+ (mmol/l) 2 hr (normal male SD rats; [1]) [mmol/L] | Plasma Ca^2+ (mmol/l) 4 hr (normal male SD rats; [1]) [mmol/L] | Plasma Ca^2+ (mmol/l) 8 hr (normal male SD rats; [1]) [mmol/L] | Plasma Ca^2+ (mmol/l) 23 hr (footnote *c, 24 hr column) (normal male SD rats; 23 hr after single oral dose 30 μmol/kg, vehicle 10% cyclodextrin (** 1% sodium-CMC)) | Plasma Ca^2+ (mmol/l) 28 hr (footnote *d, 24 hr column) (normal male SD rats; vehicle 10% cyclodextrin) | Plasma Ca^2+ (mmol/l) 24 hr (normal male SD rats; [1]) [mmol/L] | Plasma Ca^2+ (mmol/l) 48 hr (normal male SD rats; 48 hr after single oral dose 30 μmol/kg, vehicle 10% cyclodextrin) [mmol/L]
16 | COc1ccc(CN(Cc2ccc(OC(F)(F)F)cc2)C(=O)CCN[C@H](C)c2cccc3ccccc23)cc1 [Compound K-2311] | 53 | 1.447 | 1.375 | 1.232 | 1.075 | 1.110 | – | – | – | –
